This is an account of results in PubChem BioAssay AID1259407 (Chemical Carcinogenesis Research Information System (CCRIS), 2018).

SMILES strings stand for the structures. Calls of active or inactive are those of the source. No rule for the calls is given here.

For this data set, the system named is CCRIS mutagenicity, Ames/micronucleus/aberration tests. The data set can be described thus: CCRIS mutagenicity studies.
[1] abbreviates: Test System: AMES SALMONELLA TYPHIMURIUM, Strain/Indicator: TA98, Metabolic Activation: NONE, Method: PREINCUBATION
[2] abbreviates: Test System: AMES SALMONELLA TYPHIMURIUM, Strain/Indicator: TA98, Metabolic Activation: NONE, Method: STANDARD PLATE.
The mark [3] stands for this setting: Test System: AMES SALMONELLA TYPHIMURIUM, Strain/Indicator: TA100, Metabolic Activation: NONE, Method: PREINCUBATION
The mark [4] stands for this setting: Test System: AMES SALMONELLA TYPHIMURIUM, Strain/Indicator: TA100, Metabolic Activation: NONE, Method: STANDARD PLATE.

Take `O=[N+]([O-])c1ccc2c(c1)Oc1ccccc1O2`: the mutagenic call was “active; positive” (Test System: AMES SALMONELLA TYPHIMURIUM, Strain/Indicator: TA98(1,8-DNP6), Metabolic Activation: NONE, Method: PREINCUBATION); “active; positive” (Test System: AMES SALMONELLA TYPHIMURIUM, Strain/Indicator: TA98(1,8-DNP6), Metabolic Activation: NONE, Method: SUSPENSION); “active; positive” (Test System: AMES SALMONELLA TYPHIMURIUM, Strain/Indicator: TA98(1,8-DNP6), Metabolic Activation: RAT, LIVER, S-9, PCB (5%), Method: PREINCUBATION); “inactive; negative” (Test System: AMES SALMONELLA TYPHIMURIUM, Strain/Indicator: TA98(NR), Metabolic Activation: NONE, Method: SUSPENSION); “active; positive” (Test System: AMES SALMONELLA TYPHIMURIUM, Strain/Indicator: TA98(NR), Metabolic Activation: RAT, LIVER, S-9 (15%), Method: PREINCUBATION); “active; positive” (Test System: AMES SALMONELLA TYPHIMURIUM, Strain/Indicator: TA98(NR), Metabolic Activation: RAT, LIVER, S-9, 3-METHYLCHOLANTHRENE (15%), Method: PREINCUBATION). For the same compound, the mutagenic call by setting is: (Test System: AMES SALMONELLA TYPHIMURIUM, Strain/Indicator: TA98(NR), Metabolic Activation: RAT, LIVER, S-9, BETA-NAPHTHOFLAVONE (15%), Method: PREINCUBATION) “active; positive”; (Test System: AMES SALMONELLA TYPHIMURIUM, Strain/Indicator: TA98(NR), Metabolic Activation: RAT, LIVER, S-9, PCB (5 OR 15%), Method: PREINCUBATION) “active; positive”; (Test System: AMES SALMONELLA TYPHIMURIUM, Strain/Indicator: TA98(NR), Metabolic Activation: RAT, LIVER, S-9, PHENOBARBITAL (15%), Method: PREINCUBATION) “active; positive”; under setting [1], “active; positive”; under setting [2], “active; positive”; (Test System: AMES SALMONELLA TYPHIMURIUM, Strain/Indicator: TA98, Metabolic Activation: NONE, Method: SUSPENSION) “active; positive”. For the same compound, the mutagenic call reads like this: (Test System: AMES SALMONELLA TYPHIMURIUM, Strain/Indicator: TA98, Metabolic Activation: RAT, LIVER, S-9, AROCLOR, Method: STANDARD PLATE) “active; positive”; (Test System: AMES SALMONELLA TYPHIMURIUM, Strain/Indicator: TA98, Metabolic Activation: RAT, LIVER, S-9, PCB (5%), Method: PREINCUBATION) “active; positive”; (Test System: AMES SALMONELLA TYPHIMURIUM, Strain/Indicator: TA98, Metabolic Activation: RAT, LIVER, S-9, PCB, Method: SUSPENSION) “active; positive”; under setting [3], “inactive; negative”; under setting [4], “active; positive”; (Test System: AMES SALMONELLA TYPHIMURIUM, Strain/Indicator: TA100, Metabolic Activation: NONE, Method: SUSPENSION) “inactive; negative”. Further, the mutagenic call was “active; positive” (Test System: AMES SALMONELLA TYPHIMURIUM, Strain/Indicator: TA100, Metabolic Activation: RAT, LIVER, S-9, AROCLOR, Method: STANDARD PLATE); “inactive; negative” (Test System: AMES SALMONELLA TYPHIMURIUM, Strain/Indicator: TA100, Metabolic Activation: RAT, LIVER, S-9, PCB (5%), Method: PREINCUBATION); “inactive; negative” (Test System: AMES SALMONELLA TYPHIMURIUM, Strain/Indicator: TA100, Metabolic Activation: RAT, LIVER, S-9, PCB, Method: SUSPENSION).
Consider `CC(=O)OCC12OOC1(C)c1ccccc1O2` (stereo not drawn), for which the mutagenic call under setting [3] was “active; positive”.
In the case of `O=C1c2ccc3nc(-c4ccccc4)sc3c2C(=O)c2ccc3nc(-c4ccccc4)sc3c21`, the mutagenic call (Test System: AMES SALMONELLA TYPHIMURIUM, Strain/Indicator: TA98, Metabolic Activation: HAMSTER, LIVER, S-9, AROCLOR 1254 (10%), Method: STANDARD PLATE) is “inactive; negative”; the mutagenic call under setting [2] is “inactive; negative”; the mutagenic call (Test System: AMES SALMONELLA TYPHIMURIUM, Strain/Indicator: TA98, Metabolic Activation: RAT, LIVER, S-9, AROCLOR 1254 (10%), Method: STANDARD PLATE) was “inactive; negative”; the mutagenic call (Test System: AMES SALMONELLA TYPHIMURIUM, Strain/Indicator: TA100, Metabolic Activation: HAMSTER, LIVER, S-9, AROCLOR 1254 (10%), Method: STANDARD PLATE) was “inactive; negative”; the mutagenic call under setting [4] was “inactive; negative”; the mutagenic call (Test System: AMES SALMONELLA TYPHIMURIUM, Strain/Indicator: TA100, Metabolic Activation: RAT, LIVER, S-9, AROCLOR 1254 (10%), Method: STANDARD PLATE) is “inactive; negative”. In addition, the mutagenic call runs as follows: (Test System: AMES SALMONELLA TYPHIMURIUM, Strain/Indicator: TA1535, Metabolic Activation: HAMSTER, LIVER, S-9, AROCLOR 1254 (10%), Method: STANDARD PLATE) “inactive; negative”; (Test System: AMES SALMONELLA TYPHIMURIUM, Strain/Indicator: TA1535, Metabolic Activation: NONE, Method: STANDARD PLATE) “inactive; negative”; (Test System: AMES SALMONELLA TYPHIMURIUM, Strain/Indicator: TA1535, Metabolic Activation: RAT, LIVER, S-9, AROCLOR 1254 (10%), Method: STANDARD PLATE) “inactive; negative”; (Test System: AMES SALMONELLA TYPHIMURIUM, Strain/Indicator: TA1537, Metabolic Activation: HAMSTER, LIVER, S-9, AROCLOR 1254 (10%), Method: STANDARD PLATE) “inactive; negative”; (Test System: AMES SALMONELLA TYPHIMURIUM, Strain/Indicator: TA1537, Metabolic Activation: NONE, Method: STANDARD PLATE) “inactive; negative”; (Test System: AMES SALMONELLA TYPHIMURIUM, Strain/Indicator: TA1537, Metabolic Activation: RAT, LIVER, S-9, AROCLOR 1254 (10%), Method: STANDARD PLATE) “inactive; negative”. The mutagenic call was “inactive; negative” (Test System: AMES SALMONELLA TYPHIMURIUM, Strain/Indicator: TA1538, Metabolic Activation: HAMSTER, LIVER, S-9, AROCLOR 1254 (10%), Method: STANDARD PLATE); “inactive; negative” (Test System: AMES SALMONELLA TYPHIMURIUM, Strain/Indicator: TA1538, Metabolic Activation: NONE, Method: STANDARD PLATE); “inactive; negative” (Test System: AMES SALMONELLA TYPHIMURIUM, Strain/Indicator: TA1538, Metabolic Activation: RAT, LIVER, S-9, AROCLOR 1254 (10%), Method: STANDARD PLATE); “inactive; negative” (Test System: MOUSE LYMPHOMA, Strain/Indicator: L5178Y (TK+/TK-), Metabolic Activation: NONE, Method: SUSPENSION/PLATE); “active; positive” (Test System: MOUSE LYMPHOMA, Strain/Indicator: L5178Y (TK+/TK-), Metabolic Activation: RAT, LIVER, S-9, AROCLOR 1254, Method: SUSPENSION/PLATE).
Consider `COc1cc2c(c3ccc4ccccc4c13)CCC2=O`, for which the mutagenic call (Test System: AMES SALMONELLA TYPHIMURIUM, Strain/Indicator: TA100, Metabolic Activation: RAT, LIVER, S-9, AROCLOR 1254, Method: STANDARD PLATE) is “active; positive”.
Take `c1cnc2cnncc2c1`: the mutagenic call under setting [1] was “inactive; negative”; the mutagenic call (Test System: AMES SALMONELLA TYPHIMURIUM, Strain/Indicator: TA98, Metabolic Activation: RAT, LIVER, S-9, PCB, Method: PREINCUBATION) is “inactive; negative”; the mutagenic call under setting [3] was “inactive; negative”; the mutagenic call (Test System: AMES SALMONELLA TYPHIMURIUM, Strain/Indicator: TA100, Metabolic Activation: RAT, LIVER, S-9, PCB, Method: PREINCUBATION) was “inactive; negative”.
As for `Cc1ccc2cc3c4c(ccc3c3c2c1CC3)C=C[C@H](O)[C@H]4O`, the mutagenic call (Test System: CHINESE HAMSTER V-79, Strain/Indicator: V-79/8-AZAGUANINE, Metabolic Activation: NONE, Method: STANDARD PLATE) was “active; positive”.
Regarding `CCN=[N+](C)[O-]`, the mutagenic call reads like this: (Test System: AMES SALMONELLA TYPHIMURIUM, Strain/Indicator: TA1535, Metabolic Activation: HAMSTER, LIVER, S-9, AROCLOR 1254, Method: PREINCUBATION) “inactive; negative”; (Test System: AMES SALMONELLA TYPHIMURIUM, Strain/Indicator: TA1535, Metabolic Activation: NONE, Method: PREINCUBATION) “inactive; negative”; (Test System: AMES SALMONELLA TYPHIMURIUM, Strain/Indicator: TA1535, Metabolic Activation: RAT, LIVER, S-9, AROCLOR 1254, Method: PREINCUBATION) “inactive; negative”.
